# Assay results as given in publication PMC3694633, “Functional evolution of scorpion venom peptides with an inhibitor cystine knot fold” (Bioscience Reports, 2013).
# Bridge positions count the residues as written; N and C are the ends. Ends that are not written are not given here. Peptide text beside a SMILES is read from it.
# B1: λ-MeuKTx-1 (peptide)
# chain: GCNRLNKKCNSDADCCRYGERCISTGVNYYCRPDFGP
# B2: λ-MK1a (peptide)
# chain: GCNRLNKKCNSDADCCRYGERCISTGVNYYCRPDFGP-NH2
# modifications: disulfide (positions not given here); not fully specified (bridges); ends not checked; also: three disulfide bridges, pairing not given here
# B3: maurocalcine (peptide)
# chain: GDCLPHLKLCKENKDCCSKKCKRRGTNIEKRCR
# Assays:
# [1] = test system: sarcoplasmic reticulum Ca^2+ release channels/ryanodine receptors of skeletal and cardiac muscles; conditions: cited from earlier work
# Description: The ICK fold is an exceptionally stable structural motif comprising an embedded ring formed by two disulfide bridges (Cys^1–Cys^4 and Cys^2–Cys^5) and their connecting backbone segments, which is threaded by a third disulfide bridge (Cys^3–Cys^6).
# [2] = test system: apamin-sensitive SKCa channels; conditions: cited from earlier work
# Description: This is further strengthened by the evolutionary conservation of these two residues in all the members of λ-KTx subgroup. To further investigate the functional significance of this region, we carried out C-terminal amidation, a common post-translational modification for many toxins from venoms of scorpions, spiders and cone snails. The amidated peptide (named λ-MK1a) was oxi ...
# [3] = test system: rKv1.3; test: two-electrode voltage-clamp, rKv1.3 in Xenopus oocytes; format: cell-based; conditions: 10 μM, 250 ms depolarization to 0 mV from −90 mV, mean±S.E. (n=3)
# Experimental: (§1) For the expression of Kv channels (rKv1.1–rKv1.4 and Shaker IR) and Nav channels (rNav1.1, rNav1.2, rNav1.4, rNav1.5 and mNav1.6) in Xenopus oocytes, the linearized plasmids were transcribed with the T7 or SP6 mMESSAGE-mMACHINE transcription kits (Supplementary Table S2, available at http://www.bioscirep.org/bsr/033/bsr033e047add.htm). Oocytes were digested for 1–2 h at room temperature in Ca^2+-free ND96 (in mM: NaCl, 96; KCl, 2; […]; MgCl2, 2 and Hepes, 5, adjusted to pH 7.4 with NaOH) containing 0.5 mg/ml collagenase (type I, sigma). Oocytes were injected with 0.5 ng of cRNA by NANOLITER 2000 (World Precision Instruments Inc.). The oocytes were incubated in ND96 solution supplemented with 50 mg/l gentamycin sulfate at 18°C.
# (§2) Ion channel currents were recorded 1–3 days after injection with Oocyte Clamp OC-725C (Warner Instument Corp.) and Digidata 1440A (Axon CNS, Molecular Devices) controlled by pCLAMP10 software (Axon). […] All data were recorded from at least three independent oocytes (n≥3) and are presented as mean±S.E.. […] Data were analysed by pCLAMP 10 (Molecular Devices) and SigmaPlot 10.0 (Systat Software).
# [4] = test system: rKv1.2; test: two-electrode voltage-clamp, rKv1.2 in Xenopus oocytes; format: cell-based; conditions: 10 μM, 250 ms depolarization to 0 mV from −90 mV, mean±S.E. (n=3)
# Experimental: as §1, §2
# [5] = molecular target: T1, Drosophila Shaker channel (Shaker IR) (Drosophila melanogaster, UniProt P08510, DEL6-46); test: two-electrode voltage-clamp, Shaker channel in Xenopus oocytes; format: cell-based; conditions: for activity on the Shaker channel after C-terminal modification: Figure 6 modified peptides at 10 μM, n=3, GP deletion: results not shown
# T1 construct: expressed in transfected cells; host or cells: Xenopus oocytes injected with cRNA (clone in pBluescript, T7 promoter)
# T1 sequence (P08510 with tags, fused parts or gaps DEL6-46): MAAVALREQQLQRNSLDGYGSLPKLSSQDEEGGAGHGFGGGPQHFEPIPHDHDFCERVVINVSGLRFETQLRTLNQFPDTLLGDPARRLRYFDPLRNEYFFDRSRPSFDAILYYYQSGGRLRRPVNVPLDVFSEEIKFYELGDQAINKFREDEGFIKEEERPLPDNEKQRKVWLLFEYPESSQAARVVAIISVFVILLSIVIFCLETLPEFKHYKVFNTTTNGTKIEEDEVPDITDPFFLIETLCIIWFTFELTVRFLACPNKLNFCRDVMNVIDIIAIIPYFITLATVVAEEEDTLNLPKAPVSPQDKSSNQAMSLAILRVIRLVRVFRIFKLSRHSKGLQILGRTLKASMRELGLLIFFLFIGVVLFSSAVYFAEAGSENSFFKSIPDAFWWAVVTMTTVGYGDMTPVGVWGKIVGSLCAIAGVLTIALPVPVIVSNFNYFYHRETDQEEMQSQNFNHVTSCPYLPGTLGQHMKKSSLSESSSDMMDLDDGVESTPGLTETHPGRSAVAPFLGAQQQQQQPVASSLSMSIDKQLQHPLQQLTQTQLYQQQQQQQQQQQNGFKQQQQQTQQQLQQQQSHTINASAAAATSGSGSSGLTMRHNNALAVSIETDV
# Experimental: as §1
# Ion channel currents were recorded 1–3 days after injection with Oocyte Clamp OC-725C (Warner Instument Corp.) and Digidata 1440A (Axon CNS, Molecular Devices) controlled by pCLAMP10 software (Axon). Pipettes were pulled by P-97 FLAMING/BROWN Micropipette Puller (Sutter Instrument Co.) with resistance of 0.1–1.0 MΩ when filled with 3 M KCl. rKv1.1–rKv1.4 and Shaker currents were evoked by 250 ms depolarization to 0 mV followed by a 250 ms pulse to −50 mV, from a holding potential of −90 mV. rNav1.1, 1.2, 1.4, 1.5 and mNav1.6 currents were evoked by 100 ms depolarization to −10 mV from a holding potential of −90 mV. All data were recorded from at least three independent oocytes (n≥3) and are presented as mean±S.E.. Leak subtraction was carried out with a P/4 protocol. Data were analysed by pCLAMP 10 (Molecular Devices) and SigmaPlot 10.0 (Systat Software).
# [6] = molecular target: T2, rKv1.1 (Rattus norvegicus, UniProt P10499); test: two-electrode voltage-clamp, rKv1.1 in Xenopus oocytes; format: cell-based
# T2 construct: expressed in transfected cells; host or cells: Xenopus oocytes injected with cRNA (clone in pGEM, T7 promoter)
# T2 sequence (P10499 whole entry): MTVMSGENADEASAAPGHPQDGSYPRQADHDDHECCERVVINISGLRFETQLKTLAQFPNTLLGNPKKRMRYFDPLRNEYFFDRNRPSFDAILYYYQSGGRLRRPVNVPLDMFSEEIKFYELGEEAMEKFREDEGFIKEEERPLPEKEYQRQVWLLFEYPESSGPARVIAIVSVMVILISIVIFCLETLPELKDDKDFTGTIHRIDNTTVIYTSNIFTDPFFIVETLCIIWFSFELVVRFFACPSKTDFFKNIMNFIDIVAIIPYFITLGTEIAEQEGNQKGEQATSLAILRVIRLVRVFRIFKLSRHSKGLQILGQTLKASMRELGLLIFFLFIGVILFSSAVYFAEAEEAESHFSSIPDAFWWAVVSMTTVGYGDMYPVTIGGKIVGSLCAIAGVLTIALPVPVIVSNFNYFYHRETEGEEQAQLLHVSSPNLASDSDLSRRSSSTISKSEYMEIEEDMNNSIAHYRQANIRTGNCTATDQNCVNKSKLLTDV
# Experimental: as §1, §2
# [7] = test system: rKv1.4; test: two-electrode voltage-clamp, rKv1.4 in Xenopus oocytes; format: cell-based; conditions: 10 μM, 250 ms depolarization to 0 mV from −90 mV, mean±S.E. (n=3)
# Experimental: as §1, §2
# [8] = stability to non-enzymatic hydrolysis during oxidative refolding; format: physicochemical; conditions: 0.1 M Tris–HCl pH 8.0, 0.5 mM peptide, 25°C, 48 h; for chemical stability (non-enzymatic hydrolysis, Val35–Gly36 peptide bond): RP-HPLC / MALDI-TOF-MS
# Experimental: λ-MK1 and λ-MK1a in their reduced form were chemically synthesized by ChinaPeptides Co., Ltd. and Scilight-Peptide Inc., respectively. For oxidative refolding, peptide samples were dissolved in 0.1 M Tris–HCl buffer (pH 8.0) to a final concentration of 0.5 mM and incubated at 25°C for 48 h. Peptides were purified by RP-HPLC (reversed-phase HPLC). Purity and molecular masses of peptides were determined by MALDI-TOF-MS on a Kratos PC Axima CFR plus (Shimadzu Co. LTD).
# [9] = test system: mice; conditions: intracerebroventricular inoculation; cited from earlier work
# Experimental: It has been reported that the lethality of MCa on mice after intracerebroventricular inoculation (LD50=20 μg/mouse); however, the molecular basis remains unsolved so far.
# [10] = test system: Na^+ channel; parameters: method as in PMID 21665957; conditions: cited from earlier work
# [11] = molecular target: Drosophila Shaker K+ channel (Shaker IR) (Drosophila) (UniProt P08510)
# Sequence of Drosophila Shaker K+ channel (Shaker IR) (Drosophila) (P08510 whole entry): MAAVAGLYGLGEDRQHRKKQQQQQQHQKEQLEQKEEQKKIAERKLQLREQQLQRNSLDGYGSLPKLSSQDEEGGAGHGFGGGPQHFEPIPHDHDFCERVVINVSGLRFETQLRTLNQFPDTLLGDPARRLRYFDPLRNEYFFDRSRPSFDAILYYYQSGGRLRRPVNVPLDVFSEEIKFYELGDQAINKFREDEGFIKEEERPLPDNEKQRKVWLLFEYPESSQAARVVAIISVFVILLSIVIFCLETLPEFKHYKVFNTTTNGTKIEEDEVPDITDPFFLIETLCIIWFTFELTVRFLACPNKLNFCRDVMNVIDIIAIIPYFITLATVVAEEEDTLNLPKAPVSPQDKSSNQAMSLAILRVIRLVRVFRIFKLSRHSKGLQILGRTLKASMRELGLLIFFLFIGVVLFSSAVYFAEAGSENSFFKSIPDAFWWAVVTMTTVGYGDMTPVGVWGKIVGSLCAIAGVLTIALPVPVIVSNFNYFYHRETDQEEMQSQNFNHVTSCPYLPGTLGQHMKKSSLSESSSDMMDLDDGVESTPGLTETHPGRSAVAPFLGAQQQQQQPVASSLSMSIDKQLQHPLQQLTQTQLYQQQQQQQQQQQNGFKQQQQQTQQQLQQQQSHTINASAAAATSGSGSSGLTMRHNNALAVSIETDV
# [12] = molecular target: rKv1.1 (not stated (printed rKv1.1, called mammalian; r read as rat)) (UniProt P10499)
# Sequence of rKv1.1 (not stated (printed rKv1.1, called mammalian; r read as rat)) (P10499 whole entry): as the sequence (P10499 whole entry) above
# [13] = molecular target: rKv1.3 (not stated (printed rKv1.1-rKv1.4, called mammalian; r read as rat)) (UniProt P15384)
# Sequence of rKv1.3 (not stated (printed rKv1.1-rKv1.4, called mammalian; r read as rat)) (P15384 whole entry): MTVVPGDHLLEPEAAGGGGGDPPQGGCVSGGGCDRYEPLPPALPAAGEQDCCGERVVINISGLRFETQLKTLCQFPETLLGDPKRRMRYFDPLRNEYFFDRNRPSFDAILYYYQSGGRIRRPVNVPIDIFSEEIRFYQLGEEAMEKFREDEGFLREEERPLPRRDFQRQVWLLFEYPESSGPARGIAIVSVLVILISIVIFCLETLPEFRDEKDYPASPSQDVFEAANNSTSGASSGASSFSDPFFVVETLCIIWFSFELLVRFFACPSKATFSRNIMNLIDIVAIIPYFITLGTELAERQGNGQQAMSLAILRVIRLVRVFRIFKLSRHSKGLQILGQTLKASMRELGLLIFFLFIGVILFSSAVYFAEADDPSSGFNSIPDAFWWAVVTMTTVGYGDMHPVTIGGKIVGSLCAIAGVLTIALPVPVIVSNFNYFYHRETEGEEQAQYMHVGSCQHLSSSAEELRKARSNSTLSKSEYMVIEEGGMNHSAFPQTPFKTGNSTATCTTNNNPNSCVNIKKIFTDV
# [14] = molecular target: rKv1.2 (not stated (printed rKv1.1-rKv1.4, called mammalian; r read as rat)) (UniProt P63142)
# Sequence of rKv1.2 (not stated (printed rKv1.1-rKv1.4, called mammalian; r read as rat)) (P63142 whole entry): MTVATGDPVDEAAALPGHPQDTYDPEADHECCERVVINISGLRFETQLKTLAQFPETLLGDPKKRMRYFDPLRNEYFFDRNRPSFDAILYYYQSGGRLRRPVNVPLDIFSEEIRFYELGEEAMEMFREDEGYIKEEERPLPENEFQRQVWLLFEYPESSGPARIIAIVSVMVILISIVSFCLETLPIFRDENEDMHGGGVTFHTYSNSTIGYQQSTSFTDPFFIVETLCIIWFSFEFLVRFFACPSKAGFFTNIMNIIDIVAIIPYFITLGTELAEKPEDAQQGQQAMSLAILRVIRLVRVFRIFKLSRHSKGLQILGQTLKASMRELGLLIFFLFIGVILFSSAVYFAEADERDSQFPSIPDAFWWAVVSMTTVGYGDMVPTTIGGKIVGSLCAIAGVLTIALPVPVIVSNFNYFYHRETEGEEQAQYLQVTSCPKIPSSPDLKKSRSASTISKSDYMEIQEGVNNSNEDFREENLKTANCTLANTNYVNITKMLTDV
# [15] = molecular target: rKv1.4 (not stated (printed rKv1.4, called mammalian; r read as rat)) (UniProt P15385)
# Sequence of rKv1.4 (not stated (printed rKv1.4, called mammalian; r read as rat)) (P15385 whole entry): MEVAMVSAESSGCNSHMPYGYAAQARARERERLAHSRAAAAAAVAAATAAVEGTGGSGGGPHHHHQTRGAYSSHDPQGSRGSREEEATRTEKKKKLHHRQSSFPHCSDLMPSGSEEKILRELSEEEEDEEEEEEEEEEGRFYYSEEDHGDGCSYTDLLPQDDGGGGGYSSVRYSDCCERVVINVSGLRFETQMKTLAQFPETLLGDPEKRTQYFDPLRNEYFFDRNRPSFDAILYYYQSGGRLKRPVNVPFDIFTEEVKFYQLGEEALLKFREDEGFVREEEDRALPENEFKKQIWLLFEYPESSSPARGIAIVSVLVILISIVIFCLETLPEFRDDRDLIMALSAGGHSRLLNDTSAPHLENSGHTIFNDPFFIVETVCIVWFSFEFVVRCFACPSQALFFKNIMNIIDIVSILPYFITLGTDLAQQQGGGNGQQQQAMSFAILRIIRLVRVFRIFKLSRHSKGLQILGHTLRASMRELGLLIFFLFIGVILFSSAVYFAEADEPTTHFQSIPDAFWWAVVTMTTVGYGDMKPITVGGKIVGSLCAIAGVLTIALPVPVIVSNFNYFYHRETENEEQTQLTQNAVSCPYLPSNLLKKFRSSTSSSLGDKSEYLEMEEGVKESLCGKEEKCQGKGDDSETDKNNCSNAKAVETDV
# [16] = molecular target: rKv1.1 (not stated (printed rKv1.1, called mammalian; r read as rat)) (UniProt P10499); remark: listed apart in the source
molecule,measurement,setting,value
"imperatoxin A (GDCLPHLKRCKADNDCCGKKCKRRGTNAEKRCR; UniProt P59868 1-33, looked up)",activation of Ca2+ release channels/ryanodine receptors,[1],activators of sarcoplasmic reticulum Ca^2+ release channels/ryanodine receptors of skeletal and cardiac muscles
"leiurotoxin I: a scorpion α-KTx (AFCNLRMCQLSCRSLGLLGKCIGDKCECVKH; ends and bridges not checked; cysteine pairing not given here; UniProt P16341 1-31, looked up)",effect of C-terminal amidation on affinity for apamin-sensitive SKCa channels,[2],increase the affinity
"λ-MK1a: the amidated peptide of λ-MK1, three disulfide bridges (GCNRLNKKCNSDADCCRYGERCISTGVNYYCRPDFGP-NH2; disulfide (positions not given here))",current reduction of rKv1.3,[3],9.0±3.2%
same,current reduction of rKv1.2,[4],25.3±3.6%
same,activity on the Shaker channel after C-terminal modification,[5]; Xenopus oocytes,switched the target of λ-MK1 from the Shaker channel to mammalian Kv channels
same,activity on the Shaker channel after C-terminal modification,"[5]; Xenopus oocytes, listed as C-terminal amidation",loss of activity on the Shaker channel
same,current reduction of rKv1.1,"[6]; 10 μM, 250 ms depolarization to 0 mV from −90 mV, mean±S.E. (n=3)",7.7±1.8%
same,current reduction of rKv1.4,[7],35.7±4.26%
same,"chemical stability (non-enzymatic hydrolysis, Val35–Gly36 peptide bond)",[8],completely inhibited the non-enzymatic hydrolysis of the peptide
same,refolding efficiency,"[8]; RP-HPLC, relative to λ-MK1",largely improved its refolding efficiency
"CC[C@H](C)[C@@H]1NC(=O)[C@@H]2CSSC[C@@H]3NC(=O)[C@H](CCCCN)NC(=O)[C@H](CCCCN)NC(=O)[C@H](CC(N)=O)NC(=O)[C@H](CC(C)C)NC(=O)[C@H](CCCNC(=N)N)NC(=O)[C@H](CC(N)=O)NC(=O)[C@@H](NC(=O)CN)CSSC[C@H](NC(=O)[C@H](CSSC[C@@H](C(=O)N[C@@H](CCCNC(=N)N)C(=O)N4CCC[C@H]4C(=O)N[C@@H](CC(=O)O)C(=O)N[C@H](C(=O)NCC(=O)N4CCC[C@H]4C(=O)O)C(C)C)NC(=O)[C@H](Cc4ccc(O)cc4)NC(=O)[C@H](Cc4ccc(O)cc4)NC(=O)[C@H](CC(N)=O)NC(=O)[C@H](C(C)C)NC(=O)CNC(=O)[C@H]([C@@H](C)O)NC(=O)[C@H](CO)NC1=O)NC(=O)[C@H](CC(=O)O)NC(=O)[C@H](C)NC(=O)[C@H](CC(=O)O)NC(=O)[C@H](CO)NC(=O)[C@H](CC(N)=O)NC3=O)C(=O)N[C@@H](CCCNC(=N)N)C(=O)N[C@@H](Cc1ccc(O)cc1)C(=O)NCC(=O)N[C@@H](CCC(=O)O)C(=O)N[C@@H](CCCNC(=N)N)C(=O)N2 [λ-MK1] (H-GCNRLNKKCNSDADCCRYGERCISTGVNYYCRPDVGP-OH; disulfide 2-16, 9-22, 15-31)",reduction of Shaker channel currents,"[5]; 10 μM, Xenopus oocytes, 250 ms depolarization to 0 mV from −90 mV, mean±S.E. (n=3)",44.7±10.2%
same,IC50,"[5]; dose-response fitted by Hill equation, each point mean±S.E. (n=3), read-out: peptide concentration at half-maximal efficacy (IC50), Shaker channel",12.3 ± 0.96 µM
same,"chemical stability (non-enzymatic hydrolysis, Val35–Gly36 peptide bond)",[8],instability of a peptide bond between Val^35 and Gly^36 in an alkaline environment
"CC[C@H](C)[C@@H]1NC(=O)[C@H](CC(N)=O)NC(=O)[C@H]([C@@H](C)O)NC(=O)CNC(=O)[C@H](CCCNC(=N)N)NC(=O)[C@H](CCCNC(=N)N)NC(=O)[C@H](CCCCN)NC(=O)[C@@H]2CSSC[C@@H]3NC(=O)[C@H](CC(C)C)NC(=O)[C@H](CCCCN)NC(=O)[C@H](CC(C)C)NC(=O)[C@H](Cc4c[nH]cn4)NC(=O)[C@@H]4CCCN4C(=O)[C@H](CC(C)C)NC(=O)[C@@H](NC(=O)[C@H](CC(=O)O)NC(=O)CN)CSSC[C@H](NC(=O)[C@H](CSSC[C@@H](C(=O)N[C@@H](CCCNC(=N)N)C(=O)O)NC(=O)[C@H](CCCNC(=N)N)NC(=O)[C@H](CCCCN)NC(=O)[C@H](CCC(=O)O)NC1=O)NC(=O)[C@H](CC(=O)O)NC(=O)[C@H](CCCCN)NC(=O)[C@H](CC(N)=O)NC(=O)[C@H](CCC(=O)O)NC(=O)[C@H](CCCCN)NC3=O)C(=O)N[C@@H](CO)C(=O)N[C@@H](CCCCN)C(=O)N[C@@H](CCCCN)C(=O)N2 [MCa, reference compound] (H-GDCLPHLKLCKENKDCCSKKCKRRGTNIEKRCR-OH; disulfide 3-17, 10-21, 16-32)",IC50,"[6]; dose-response, each point mean±S.E. (n=3), read-out: IC50, inhibition of rKv1.1 currents",21.9 ± 1.04 µM
same,LD50,[9],20 μg/mouse
"jingzhaotoxin-III: tarantula toxin, an Na^+ channel blocker with an ICK fold (DGECGGFWWKCGRGKPPCCKGYACSKTWGWCAVEAP; also: ICK fold, disulfide pairing not given here; UniProt P62520 28-63, looked up)",Na+ channel block,[10],Na^+ channel blocker
B1,"reduction of Shaker channel currents at 10 μM peptide, two-electrode voltage clamp in Xenopus oocytes",[11],44.7%
B2,"reduction of rKv1.1 currents at 10 μM peptide, two-electrode voltage clamp in Xenopus oocytes",[12],7.7%
same,"reduction of rKv1.3 currents at 10 μM peptide, two-electrode voltage clamp in Xenopus oocytes",[13],9%
same,"reduction of rKv1.2 currents at 10 μM peptide, two-electrode voltage clamp in Xenopus oocytes",[14],25.3%
same,"reduction of rKv1.4 currents at 10 μM peptide, two-electrode voltage clamp in Xenopus oocytes",[15],35.7%
B3,"IC50 of inhibition of rKv1.1 currents, dose-response, two-electrode voltage clamp in Xenopus oocytes",[16],21.9 µM
